Reference: patent EP0611660A2, “Condensed 5-membered heterocycles, process for their preparation and medicines containing these compounds” (Dr. Karl Thomae GmbH, priority 1993, dated 1994)
Where a name gives a salt, the structure may show the parent alone.

Tested on: Thrombozytenaggregation
Test: Antithrombotic effect: collagen-induced platelet aggregation (Born and Cross) in platelet-rich plasma
Assay type: cell-based
Settings: human platelet-rich plasma, 10 min preincubation at 37 °C, 50% change of optical density, read-out: Hemmung der Plättchenaggregation EC50
Source text: 2. Antithrombotische Wirkung: Methodik Die Thrombozytenaggregation wird nach der Methode von Born und Cross (J. Physiol. 170, 397 (1964)) in plättchenreichem Plasma gesunder Versuchspersonen gemessen. Zur Gerinnungshemmung wird das Blut mit Natriumcitrat 3,14 % im Volumenverhältnis 1:10 versetzt. Collagen-induzierte Aggregation Der […] Substanz photometrisch gemessen und registriert. Aus dem Neigungswinkel der Dichtekurve wird auf die Aggregationsgeschwindigkeit geschlossen. Der Punkt der Kurve, bei dem die größte Lichtdurchlässigkeit vorliegt, dient zur Berechnung der "optical density". Die Collagen-Menge wird möglichst gering gewählt, aber doch so, daß sich eine irreversibel verlaufende Reaktionskurve ergibt. Verwendet wird das handelsübliche Collagen der Firma Hormonchemie, München. Vor der Collagen-Zugabe wird das Plasma jeweils 10 Minuten mit der Substanz bei 37 ° C inkubiert. Aus den erhaltenen Meßzahlen wird graphisch eine EC50 bestimmt, die sich auf eine 50%ige Änderung der "optical density" […].

Compound	IC50
Cn1c(C(=O)NC2CCNCC2)nc2cc(C(=O)NCCC(=O)O)ccc21 [1(1), 5-[(2-Carboxy-ethyl)-aminocarbonyl]-1-methyl-2-[(4-piperidinyl)-aminocarbonyl]-benzimidazol-dihydro-bromid]	> 10000 nM
Cn1c(CCC2CCNCC2)nc2cc(C(=O)CCCC(=O)O)ccc21 [1(15), 5-(4-Carboxy-1-oxo-butyl)-1-methyl-2-[2-(4-piperidinyl)-ethyl]-benzimidazol-dihydrobromid]	1250 nM
Cn1c(=O)n(CCCCC(=O)O)c(=O)c2[nH]c(CCC3CCNCC3)nc21 [1(48), 1-(4-Carboxy-butyl)-3-methyl-8-[2-(4-piperidinyl)ethyl]-xanthin-dihydrochlorid]	250 nM
Cn1c(CCC2CCNCC2)nc2c(=O)n(CCCCC(=O)O)c(=O)n(C)c21 [1(49), 1-(4-Carboxy-butyl)-3,9-dimethyl-8-[2-(4-piperidinyl)-ethyl]-xanthin-dihydrobromid]	150 nM
N=C(N)c1ccc(-c2nc3c(=O)n(CCCCC(=O)O)c(=O)n4c3n2CCC4)cc1 [1(61), 2-(4-Amidino-phenyl)-9-(4-carboxy-butyl)-8,10-dioxo-5,6-dihydro-4H,9H-pyrimido[1,2,3-cd]purin-dih-ydrobromid]	110 nM
O=C(O)CCCCn1c(=O)c2nc(CCC3CCNCC3)n3c2n(c1=O)CCC3 [1(63), 9-(4-Carboxy-butyl)-2-[2-(4-piperidinyl)-ethyl]-8,10-dioxo-5,6-dihydro-4H,9H-pyrimido[1,2,3-cd]purin-dihydrobromid]	4400 nM
Cn1c(=O)n(CCCCC(=O)O)c(=O)c2[nH]c([C@H]3CC[C@H](CN)CC3)nc21 [1(64), 8-(trans-4-Aminomethyl-cyclohexyl)-1-(4-carboxy-butyl)-3-methyl-xanthin-dihydrochlorid]	30000 nM
Cn1c(-c2ccc(C3CCNCC3)cc2)nc2cc(C=CC(=O)O)ccc21 [1(67), 5-(2-Carboxy-ethenyl)-1-methyl-2-[4-(4-piperidinyl)-phenyl]-benzimidazol-dihydrobromid]	2300 nM
Cn1c(CCC2CCNCC2)nc2c1c(=O)n(CCCCC(=O)O)c(=O)n2C [6(12), 1-(4-Carboxy-butyl)-3,7-dimethyl-8-[2-(4-piperidinyl)-ethyl]-xanthin]	6400 nM
COC(=O)CCCCn1c(=O)c2nc(-c3ccc(C(=N)N)cc3)n3c2n(c1=O)CCC3 [7(12), 2-(4-Amidino-phenyl)-9-(4-methoxycarbonyl-butyl)-8,10-dioxo-5,6-dihydro-4H,9H-pyrimido[1,2,3-cd]-purin]	660 nM
Cn1c(CCC2CCNCC2)nc2cc(C(=O)NCCC(=O)O)ccc21 [Beispiel 1, 5-[(2-Carboxy-ethyl)-aminocarbonyl]-1-methyl-2-[2-(4-piperidinyl)-ethyl]-benzimidazol-dihydrobromid]	430 nM
COC(=O)CCNC(=O)c1ccc2c(c1)nc(CCC1CCNCC1)n2C [Beispiel 2, 5-[(2-Methoxycarbonyl-ethyl)-aminocarbonyl]-1-methyl-2-[2-(4-piperidinyl)-ethyl]-benzimidazol]	2000 nM
